In patent publication US20240423976A1, “COMPOSITIONS AND METHODS FOR TREATING THERAPEUTIC-INDUCED TOXICITIES” (THE BOARD OF REGENTS OF THE UNIVERSITY OF OKLAHOMA, priority 2023, published 2024):
Values belong to the molecule of their own block, whether it stands above or below them.

Tests used:
HEI-OC1 cells [1] = assay: Cellular internalization study of C6-cHy-NPs with pathway inhibitors and over time; assay type: cell-based; details: 40 μg/mL inhibitor, 1 h pre-incubation
Experimental: First, blank cHy-NPs (cHy-NPs, without FL or HK encapsulation) were prepared as described below. In, 1 mL colloidal solution of cHy-NPs, 1 mg coumarin-6 (C-6) was added and the mixture was stirred at 200 rpm overnight at room temperature. The NP solution was then centrifuged at 2000 rpm for 5 min to remove unloaded C-6. The supernatant containing C-6-cHy-NPs was transferred to a fresh microcentrifuge tube. The HEI-OC1 (House Ear Institute-Organ of Corti 1) cells were seeded in 96 well plate (10000 cells per well) overnight. After washing with fresh growth media, the media (100 μL) containing 40 μg/mL CPZ, MβCD, GNT, or AML was added to separate columns (2 columns kept untreated as a control group). After 1 h of incubation at 33° C. (5% CO2), 2.5 μL of C6-cHy-NPs (10× diluted with media) were added to each well. The plate was incubated for 4 h and the cells were washed using PBS. After adding fresh PBS, the fluorescence intensity of each well was recorded using a multi-well plate fluorescence spectrophotometer (Synergy 2, BioTek, USA) at λex/em 460/505. In another experiment to confirm the effect of various inhibitors, the cells (20000 per well) were seeded overnight, and incubated with different concentrations (0, 2.5, 5, 10, 20, 30, 40, 50, and 75 μg/mL) of MβCD, GNT, or AML. After treatment, incubation, and washing, the fluorescence intensity of each well was recorded as described above. Furthermore, to study the time of cellular internalization the cells (20000 per well) were treated with C-6-cHy-NPs (5 μL, 10× diluted), and the fluorescence of the samples was recorded after washing at different time intervals (0.25, 0.5, 1, 2, 3, 4, 5, 6, 8, 10, 24, and 48 h) of incubation. For microscopy analysis, the cells were seeded in a 6 well plate (1×10^5 cells/well) and incubated overnight. The next day, cells were washed and in each well media containing C-6-cHy-NPs was added. At different time intervals (0.5, 1, 2, 3, 4, and 5 h), the cells of a well were washed using PBS and analyzed under the fluorescence microscope using a 20× lens (Revolve, Discover Echo Inc., San Diego, CA, USA) at λex 460 nm. Counterstain Hoechst 33342 (1 μg/mL, 10 min incubation in the dark, λex 350 nm) was used.

[2] = In vitro drug release kinetics from thermoresponsive hydrogel (Korsmeyer-Peppas model); assay type: physicochemical; details: PBS pH 7.4; for release from the hydrogel: in 48 h at 25° C.; for maximum release from the hydrogel: in one month at 37° C.
Experimental: Two 24 well plates were taken equipped with 6.5 mm inserts (Transwell®, Costar, Corning, NY, USA) having 8 µm pores polycarbonate support membrane six in each plate. The developed hydrogel formulations containing FL-cHy-NPs and HK-cHy-NPs were filled in the inserts (n=3, in each plate and each formulation). One plate was placed at 37° C. while the other one was kept at 25° C. After 30 min, the receiver media (1 mL, PBS pH 7.4) was filled in each well-containing insert. Other wells were filled with deionized water to maintain humidity in the plate. […] The drug content (FL and HK) was extracted using DCM; solvent-solvent extraction. After evaporating the DCM, the extracted FL and HK content was dissolved in methanol (100 μL, 100% LC-MS grade). The drug quantification of FL and HK in each sample was done using HPLC using the same procedure described above. The release kinetics of FL and HK from both hydrogels were calculated using the Korsmeyer-Peppas model (eq 7). where, Mt is the mass of the drug released at time t; […]

neuromast hair cells = assay: Otoprotection studies on zebrafish (cisplatin ototoxicity); assay type: in vivo; details: 5-6 dpf fish; 33, 17, 2 mM alone or 17+17, 8.5+8.5, 3+3 mM; cisplatin 400 mM, 6 hours
Experimental: Fish were maintained at 28.5° C. in E3 media with a 14-hour light/10-hour dark cycle. Otoprotection studies were performed in 5-6 dpf wild type (TuAB) fish as previously described [2]. Briefly, fish were pre-incubated for one hour in E3 media containing FL, HK or FL+HK and then co-incubated for 6 hours with the corresponding cytoprotective molecules and clinical cisplatin 400 mM. Concentrations were as follow: FL or HK=33 mM, 17 mM and 2 mM; FL+HK=17+17 mM, 8.5+8.5 mM and 3+3 mM. Fish were also incubated with empty NPs as control. After the treatment, fish were transferred to fresh E3 media for one hour to recover, followed by fixation (4% PFA) and processing for confocal imaging. For the detection of neuromast hair cells, fish were immunostained for the hair cell marker, otoferlin (HCS-1, DSHB, 1:200 dilution). Hair cells were manually counted using a Zeiss AxioSkop 2 fluorescence microscope. The neuromasts inspected were part of the cranial system and included the otic, middle, and opercular neuromasts. Ten to twelve fish were used per treatment. Confocal imaging was performed using a Zeiss LSM 700 confocal laser scanning image system. Images were captured at room temperature with automatically set sectioning and processed with ZEN black edition software. Z-stacks are presented as flat Z-projections.

HEI-OC1 cells [3] = assay: Intracellular ROS generation (DCFH2-DA); assay type: cell-based
Experimental: (§1) The HEI-OC1 Cells (10000 cells/well in 96-well plates) were treated with various treatment groups as described above in the cell cytotoxicity study section. The endpoints for ROS generation, apoptosis, and necrosis studies were set up at 24, 36, and 48 h, respectively. For ROS generation study, the cells were washed two times with fresh media and then culture media containing DCFH2DA reagent (10 μM) was added to each well. After 30 min incubation in dark at 33° C. (5% CO2) the cells were washed with PBS three times. Fresh PBS (100 μL) was added and the fluorescence was recorded at λex/em 480/530 nm using a multi-well plate fluorescence spectrophotometer (Synergy 2, BioTek, USA). […] After washing, the fluorescence was recorded at λex/em 480/530 nm using a multi-well plate fluorescence spectrophotometer (Synergy 2, BioTek, USA). […] After 15 min incubation in dark, the fluorescence was recorded at λex/em 530/615 nm using a multi-well plate fluorescence spectrophotometer (Synergy 2, BioTek, USA). The fluorescence microscopy analysis of ROS generation, apoptosis, and necrosis experiments was performed. […] The cells were observed under the fluorescence microscope using a 20× lens at the respective dye fluorescence filter as described above. For HOECHST-33342 λex/em 350/460 nm fluorescence filter was used.

caspase 3/7 [4] = assay: Caspase 3/7 apoptosis assay; assay type: cell-based; details: HEI-OC1
Experimental: as §1

HEI-OC1 cells [5] = assay: MitoSOX mitochondrial superoxide assay; assay type: cell-based; details: MitoSOX fluorescence
HEI-OC1 cells [6] = assay: PI staining necrosis / cell death assay; assay type: cell-based; details: 48 h; pre-treatment then CisPt; CisPt row is CisPt only
Experimental: as §1

caspase 3/7 [7] = assay: Caspase 3/7 activation in CisPt-exposed cells (FLICA, fluorescence microscopy), Example 1; assay type: cell-based; details: CisPt-exposed HEI-OC1 cells
Experimental: Novel dual stimuli-responsive nanoformulations have been investigated for the synthesis of ROS-responsive polymers, and thermo-responsive polymers and their characterization using ^1H NMR. Drug loaded NCs comprising BUC and/or DLT in micelles of PPS-mPEG2000 were prepared by nanoprecipitation methods. The BUC-PPS-mPEG2000-NCs and DLT-PPS-mPEG2000-NCs were characterized using DLS and NTA and TEM images. The EE % and DL % of NCs were determined using HPLC and Ellman's assays. The long-term storage stability over two months was checked by using DLS for size and PDI. In vitro assessments were performed on the HEIOC1 cell lines for MTT and Live-dead cell assays for biocompatibility and cellular uptake analysis, respectively. The cytoprotective effect of BUC-NCs, DLT-NCs and BUC/DLT-PPS-mPEG2000-NCs, were studied after treating with various regimens and different concentration with and without cisplatin. The ROS-Scavenging effect nanoformulation was confirmed by the DCFH-DA assay, and FLICA assays. The final formulation, named NanoSensoGel, comprising a combination of a thermo-responsive P407 hydrogel, and the ROS-responsive BUC/DLT loaded PPS-mPEG2000-NCs, was characterized for its bio-responsiveness, a novel method was established to perform the in vitro drug release, and release kinetics mechanism were studied for dual drug release.

Molecule: methyl-β-cyclodextrin [MβCD]
effect of pathway inhibitor pretreatment on cellular internalization of C6-cHy-NPs (HEI-OC1 cells [1]): no significant change in the cellular internalization

release from the hydrogel [2]: ~60%
maximum release from the hydrogel [2]: ~50%
Molecule: Fc1ccc(C(c2ccc(F)cc2)N2CCN(C/C=C/c3ccccc3)CC2)cc1 [FL, Flunarizine]
protection of neuromast hair cells against cisplatin-induced ototoxicity (neuromast hair cells): prevented hair cell loss

Molecule: CN(C)CCCN1c2ccccc2Sc2ccc(Cl)cc21 [CPZ, Chlorpromazine]
effect of pathway inhibitor pretreatment on cellular internalization of C6-cHy-NPs (HEI-OC1 cells [1]): significantly reduced cellular internalization

release from the hydrogel [2]: ~60%
maximum release from the hydrogel [2]: ~50%
Molecule: C=CCc1ccc(O)c(-c2ccc(O)c(CC=C)c2)c1 [HK, Honokiol]
protection of neuromast hair cells against cisplatin-induced ototoxicity (neuromast hair cells): prevented hair cell loss

Molecule: O=S([O-])([O-])=S.[Na+].[Na+] [STS, Sodium thiosulphate]
ROS generation compared to CisPt-only treated cells (HEI-OC1 cells [3]; 24 h post CisPt addition): did not show a significant ROS generation
ratio of normalized intensities of total cells and DCF-stained cells (HEI-OC1 cells [3]; fluorescence microscopy, pre-treatment then CisPt, CisPt row is CisPt only): 1.53±0.23
caspase 3/7 activation compared to CisPt only treated cells (caspase 3/7 [4]): significantly reduced signals of caspase 3/7 activation
mitochondrial superoxide compared to CisPt-only treated cells (HEI-OC1 cells [5]): significantly reduced mitochondrial superoxide
ratio of normalized intensities of total cells and PI-stained cells (HEI-OC1 cells [6]): 2.03±0.02

Molecule: CC(C)(S)C(=O)N[C@@H](CS)C(=O)O [BUC, bucillamine]
inhibition of caspase 3/7 activation (caspase 3/7 [7]): highly responsible for the inhibition of the caspase 3/7 activation

Molecule: N=C(N)NC(=O)c1nc(Cl)c(N)nc1N [AML, Amiloride]
effect of pathway inhibitor pretreatment on cellular internalization of C6-cHy-NPs (HEI-OC1 cells [1]): no significant change in the cellular internalization

Molecule: O=c1c(-c2ccc(O)cc2)coc2cc(O)cc(O)c12 [GNT, Genistein]
effect of pathway inhibitor pretreatment on cellular internalization of C6-cHy-NPs (HEI-OC1 cells [1]): no significant change in the cellular internalization
